Measurements: patent US8318792B2, “Therapeutic agent for amyotrophic lateral sclerosis” (Nippon Medical School Foundation, priority 2006, dated 2012)

How the values were obtained:
Format in all cases: in vivo, mouse
G1H-G93A transgenic mice [1] = test: Clinical symptomatological evaluation (day of onset, survival period, disease period, stage periods); conditions: for day of onset / disease period / survival period / time period of clinical symptomatological stage 1 / time period of clinical symptomatological stage 2 / time period of clinical symptomatological stage 3 / time period of clinical symptomatological stage 4 / time period of clinical symptomatological stage 5: average±SD
Experimental: 1) The procedure of concentration adjustment, and the amount and the procedure of administration of the compound (a) were as described below. As a base, 0.5% methylcellulose is prepared. 5 mg of the compound (a) is pulverized in an agate mortar, and then a small amount of 0.5% methylcellulose is added to form a complete suspension. Subsequently, a small amount of 0.5% methylcellulose is added gradually, so that finally 5 mg of the compound (a) is suspended in 10 mL of 0.5% methylcellulose. A sample of 5 mg of compound (a)/10 mL of 0.5% methylcellulose (5 mg/10 mL) was prepared by the above-described procedure, and thus the compound (a) was orally administered once a day in a dose of 5 mg per kg of the mouse body weight (5 mg/kg).
As the experimental animal, male transgenic mice over-expressing a high copy number (25 copies) of mutated human SOD1 gene with a G93A point mutation, i.e., B6SJL-TgN [SOD1-G93A]1Gur (G1H-G93A transgenic mice, JR2726; Hemizygote) (Gurney M E, et al., Science, 264, 1772-1775, 1994), were purchased from Jackson Laboratory (Bar Harbor, USA) and used. At the same time, wild-type male mice from the same litter, B6SJL-TgN[SOD1-G93A]1Gur (Wild-type), were also purchased from Jackson Laboratory and used.
The mice were subjected to a clinical symptomatological evaluation everyday. The clinical symptomatological evaluation was performed from one week after the arrival from Jackson Laboratory. […] The day of onset, the survival period and the disease period were indicated by the number of days. In regard to the indication of the number of days of the disease period, one day (one disease day) corresponds to within 24 hours from the onset (the “onset” is determined by the observation of the clinical symptomatological evaluation stage 1), and two days (two disease days) corresponds to more than 24 hours after and within 48 hours from the onset. Subsequent disease days after the onset were determined in the same manner.
The mice were divided into seven experimental groups, to which a placebo, the compound (a), compound (b), compound (c) or allopurinol was administered. That is, the seven groups consist of: an experimental group administered with placebo; a treatment experimental group administered with compound (a) before onset; a treatment experimental group administered with compound (a) after onset; a treatment experimental group administered with compound (b) before onset; a treatment experimental group administered with compound (c) before onset; a treatment experimental group administered with compound (c) after onset; and a treatment group administered with allopurinol before onset. Details of the respective groups will be described in the following.
Ten G1H-G93A transgenic mice were used. From the 80th day after birth, 5 mg/kg of the compound (a) was orally administered everyday. […]
Ten G1H-G93A transgenic mice were used. From the 80th day after birth, 5 mg/kg of the compound (b) was orally administered everyday.
Ten G1H-G93A transgenic mice were used. From the 80th day after birth, 5 mg/kg of the compound (c) was orally administered everyday. […]
Ten G1H-G93A transgenic mice were used. From the 80th day after birth, 5 mg/kg of allopurinol was orally administered everyday.
In regard to the results of the clinical symptomatological evaluation, the day of onset, the survival period (days taken to show quadriplegia and to reach the moribund state), the disease period (days taken to show quadriplegia and to reach the moribund state, from the day of onset), and the time periods for the respective stages of the clinical symptomatological evaluation, were indicated by the average±standard deviation. In regard to the results of the exercise tolerance test, the score values of the respective exercise tolerance tests, including the extension reflex test, inclined plane test, footprint test, rotarod test and beam balance test, were indicated by the average±standard deviation. […]

G1H-G93A transgenic mice [2] = test: Exercise tolerance test: extension reflex test; conditions: for Extension reflex test score: 5 mg/kg oral daily from 80th day (before onset), score 0-2, 5 mg/kg
Experimental: (§1) The following five kinds of exercise tolerance tests were conducted every fifth day from the 70th day after birth to evaluate the ability to exercise in the respective exercise tolerance tests. That is, the days for the exercise tolerance tests were every fifth days, such as the 70th day, 75th day, 80th day, 85th day and so on, after birth. The exercise tolerance tests were conducted throughout the survival period, and the post-mortem evaluation was based on the definitions of the following five kinds of exercise tolerance tests.
As for extension reflex, extension of the hindlimbs is normally observed when a mouse is suspended in the air by its tail.
The evaluation of extension reflex test of the mice was performed based on the following criteria: Score 0=Extension reflex is recognized in both of the hindlimbs; Score 1=Extension reflex is recognized only one hindlimb; and Score 2=Extension reflex is not recognized in both of the hindlimbs. The post-mortem evaluation of the extension reflex test is defined as score 2.

G1H-G93A transgenic mice [3] = test: Exercise tolerance test: footprint test; conditions: 5 mg/kg oral daily from 80th day (before onset), score 0-4
Experimental: as §1
Both hindlimbs of a mouse are dipped in a black ink bottle, and then the mouse is allowed to walk on white paper. The footprints of the two hindlimbs of the mouse after the walking are analyzed. […] The post-mortem evaluation of the footprint test is defined as score 4.

[4] = 5 mg/kg oral daily from 80th day after birth (before onset), Mann-Whitney's U test, log-rank test
[5] = 5 mg/kg oral daily from the day of onset (after onset), Mann-Whitney's U test, log-rank test
[6] = 5 mg/kg oral once a day from 80th day after birth (before onset)
[7] = 5 mg/kg oral once a day from the onset (after onset)

CC(C)(C)COc1ccc(-n2cc(C(=O)O)cn2)cc1C#N [compound (a), 1-[3-cyano-4-(2,2-dimethylpropoxy)phenyl]-1H-pyrazole-4-carboxylic acid]
time periods for the respective stages in comparison to placebo group (G1H-G93A transgenic mice [1]; 5 mg/kg oral daily from 80th day after birth (before onset), Mann-Whitney's U test): extended period of respective stages with significant difference | disease period extending effect in comparison to placebo group (G1H-G93A transgenic mice [1]; [4]): significant extension of the disease period | onset delaying effect in comparison to placebo group (G1H-G93A transgenic mice [1]; [4]): significant delaying of the day of onset | survival period extending effect in comparison to placebo group (G1H-G93A transgenic mice [1]; [4]): significant extension of the survival period | time periods for the respective stages in comparison to placebo group (G1H-G93A transgenic mice [1]; 5 mg/kg oral daily from the day of onset (after onset), Mann-Whitney's U test): extended period of stage 3 (P<0.05, Mann-Whitney's U test) and stage 4 (P<0.05, Mann-Whitney's U test) with significant differences | disease period extending effect in comparison to placebo group (G1H-G93A transgenic mice [1]; [5]): significant extension of the disease period | survival period extending effect in comparison to placebo group (G1H-G93A transgenic mice [1]; [5]): significant extension of the survival period | day of onset (G1H-G93A transgenic mice [1]; [6]): 113.0 ± 4.8 days | disease period (G1H-G93A transgenic mice [1]; [6]): 24.9 ± 3.1 days | survival period (G1H-G93A transgenic mice [1]; [6]): 136.9 ± 3.8 days | time period of clinical symptomatological stage 1 (G1H-G93A transgenic mice [1]; [6]): 7.5±0.7 days | time period of clinical symptomatological stage 2 (G1H-G93A transgenic mice [1]; [6]): 6.6±1.2 days | time period of clinical symptomatological stage 3 (G1H-G93A transgenic mice [1]; [6]): 5.4±1.1 days | time period of clinical symptomatological stage 4 (G1H-G93A transgenic mice [1]; [6]): 3.6±0.7 days | time period of clinical symptomatological stage 5 (G1H-G93A transgenic mice [1]; [6]): 1.8±0.4 days | day of onset (G1H-G93A transgenic mice [1]; [7]): 99.8 ± 2.4 days | disease period (G1H-G93A transgenic mice [1]; [7]): 23.9 ± 1.7 days | survival period (G1H-G93A transgenic mice [1]; [7]): 122.7 ± 2.1 days | time period of clinical symptomatological stage 1 (G1H-G93A transgenic mice [1]; [7]): 7.3±0.7 days | time period of clinical symptomatological stage 2 (G1H-G93A transgenic mice [1]; [7]): 6.0±0.7 days | time period of clinical symptomatological stage 3 (G1H-G93A transgenic mice [1]; [7]): 5.3±0.9 days | time period of clinical symptomatological stage 4 (G1H-G93A transgenic mice [1]; [7]): 3.5±0.5 days | time period of clinical symptomatological stage 5 (G1H-G93A transgenic mice [1]; [7]): 1.8±0.4 days | Extension reflex test score (G1H-G93A transgenic mice [2]; 70th day after birth): 0.0±0.0 | Extension reflex test score (G1H-G93A transgenic mice [2]; 75th day after birth): 0.0±0.0 | Extension reflex test score (G1H-G93A transgenic mice [2]; 80th day after birth): 0.0±0.0 | Extension reflex test score (G1H-G93A transgenic mice [2]; 85th day after birth): 0.0±0.0 | Extension reflex test score (G1H-G93A transgenic mice [2]; 90th day after birth): 0.0±0.0 | Extension reflex test score (G1H-G93A transgenic mice [2]; 95th day after birth): 0.0±0.0 | Extension reflex test score (G1H-G93A transgenic mice [2]; 100th day after birth): 0.0±0.0 | Extension reflex test score (G1H-G93A transgenic mice [2]; 105th day after birth): 0.0±0.0 | effect in extension reflex test as compared to placebo group (G1H-G93A transgenic mice [2]; 105th, 110th, 115th and 120th day, 5 mg/kg oral daily from 80th day after birth, Mann-Whitney's U test): significant effects | Extension reflex test score (G1H-G93A transgenic mice [2]; 110th day after birth): 0.1±0.3 | Extension reflex test score (G1H-G93A transgenic mice [2]; 115th day after birth): 0.5±0.5 | Extension reflex test score (G1H-G93A transgenic mice [2]; 120th day after birth): 0.9±0.7 | Extension reflex test score (G1H-G93A transgenic mice [2]; 125th day after birth): 1.5±0.5 | Extension reflex test score (G1H-G93A transgenic mice [2]; 130th day after birth): 1.9±0.3 | Extension reflex test score (G1H-G93A transgenic mice [2]; 135th day after birth): 2.0±0.0 | Extension reflex test score (G1H-G93A transgenic mice [2]; 140th day after birth): 2.0±0.0 | Footprint test score (G1H-G93A transgenic mice [3]; 70th day after birth): 0.0±0.0 | Footprint test score (G1H-G93A transgenic mice [3]; 75th day after birth): 0.0±0.0 | Footprint test score (G1H-G93A transgenic mice [3]; 80th day after birth): 0.0±0.0 | Footprint test score (G1H-G93A transgenic mice [3]; 85th day after birth): 0.0±0.0 | Footprint test score (G1H-G93A transgenic mice [3]; 90th day after birth): 0.0±0.0 | Footprint test score (G1H-G93A transgenic mice [3]; 95th day after birth): 0.0±0.0 | Footprint test score (G1H-G93A transgenic mice [3]; 100th day after birth): 0.0±0.0 | Footprint test score (G1H-G93A transgenic mice [3]; 105th day after birth): 0.0±0.0 | Footprint test score (G1H-G93A transgenic mice [3]; 110th day after birth): 0.1±0.3 | Footprint test score (G1H-G93A transgenic mice [3]; 115th day after birth): 0.6±0.7 | Footprint test score (G1H-G93A transgenic mice [3]; 120th day after birth): 1.8±0.9 | Footprint test score (G1H-G93A transgenic mice [3]; 125th day after birth): 2.8±0.4 | Footprint test score (G1H-G93A transgenic mice [3]; 130th day after birth): 3.4±0.5 | Footprint test score (G1H-G93A transgenic mice [3]; 135th day after birth): 3.9±0.3 | Footprint test score (G1H-G93A transgenic mice [3]; 140th day after birth): 4.0±0.0
